What was measured:
Assay type in all cases: cell-based
Sialidase-3 [1] = target: T1, Sialidase-3 (Homo sapiens, UniProt Q9UQ49); test: Inhibition of human NEU3 expressed in HEK293 cells by fluorometric high-performance liquid chromatography using ganglioside GM3 substrate
T1 sequence (Q9UQ49 whole entry): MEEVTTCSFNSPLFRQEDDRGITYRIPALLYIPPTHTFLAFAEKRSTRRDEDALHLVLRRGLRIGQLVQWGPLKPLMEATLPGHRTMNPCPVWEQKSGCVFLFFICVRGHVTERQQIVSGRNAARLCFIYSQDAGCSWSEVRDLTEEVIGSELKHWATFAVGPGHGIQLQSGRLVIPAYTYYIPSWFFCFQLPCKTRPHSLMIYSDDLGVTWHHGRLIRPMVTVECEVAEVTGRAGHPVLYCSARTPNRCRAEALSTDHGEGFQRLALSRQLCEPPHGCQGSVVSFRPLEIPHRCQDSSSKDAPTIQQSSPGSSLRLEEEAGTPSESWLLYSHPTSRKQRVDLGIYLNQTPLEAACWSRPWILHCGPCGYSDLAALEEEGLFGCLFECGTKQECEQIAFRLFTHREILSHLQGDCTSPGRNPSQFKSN

Sialidase-4 = target: T2, Sialidase-4 (Homo sapiens, UniProt Q8WWR8); test: Inhibition of human NEU4 expressed in HEK293 cells by fluorometric high-performance liquid chromatography using 4MU-NeuAc substrate
T2 sequence (Q8WWR8 whole entry): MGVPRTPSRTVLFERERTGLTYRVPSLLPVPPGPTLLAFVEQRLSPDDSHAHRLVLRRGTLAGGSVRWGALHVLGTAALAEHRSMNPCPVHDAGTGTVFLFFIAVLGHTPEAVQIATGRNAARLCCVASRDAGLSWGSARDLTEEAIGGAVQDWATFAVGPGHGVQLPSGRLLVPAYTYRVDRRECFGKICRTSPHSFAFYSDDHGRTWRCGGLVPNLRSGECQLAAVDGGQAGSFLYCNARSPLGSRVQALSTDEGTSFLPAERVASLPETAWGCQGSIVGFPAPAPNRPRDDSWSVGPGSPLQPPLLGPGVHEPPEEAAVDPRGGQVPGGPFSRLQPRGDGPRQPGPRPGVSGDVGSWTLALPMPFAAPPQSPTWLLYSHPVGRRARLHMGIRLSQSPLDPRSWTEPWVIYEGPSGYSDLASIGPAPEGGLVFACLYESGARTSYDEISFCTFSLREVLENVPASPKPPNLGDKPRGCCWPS

Sialidase-3 [2] = target: T1, Sialidase-3; test: Inhibition of human NEU3 expressed in HEK293 cells by fluorometric high-performance liquid chromatography using 4MU-NeuAc substrate
Sialidase-1 = Sialidase-1 (Homo sapiens, UniProt Q99519); test: Inhibition of human NEU1 expressed in HEK293 cells by fluorometric high-performance liquid chromatography using 4MU-NeuAc substrate

Molecule `CC(=O)N[C@H]1[C@H]([C@H](O)[C@H](O)CO)OC(C(=O)O)=C[C@@H]1O` [NEU5AC2EN] has an IC50 (Sialidase-3 [1]) of 0.0703 mM.
With `CCOC(=O)C1=C[C@@H](OC(CC)CC)[C@H](NC(C)=O)[C@@H](N)C1` [OSELTAMIVIR] the IC50 (Sialidase-4) was > 10 mM, the IC50 (Sialidase-3 [2]) was > 10 mM and the IC50 (Sialidase-1) was > 10 mM.
`CC(=O)N[C@H]1[C@H]([C@H](O)[C@H](O)CO)OC(C(=O)O)=C[C@@H]1N=C(N)N` [ZANAMIVIR] gave an IC50 (Sialidase-1) of 2.71 mM.
